We go through one molecule from US20190275179A1, “SONOPHORE-LABELED PROBES AND RELATED IN VIVO IMAGING TECHNIQUES” (MEMORIAL SLOAN KETTERING CANCER CENTER, priority 2016, published 2019).

Data set [1] can be described thus: Absorbance spectra of BHQ-1 and BHQ-1-cRGD by spectrophotometry. The class given is physicochemical. The settings on record: measured in ethanol, 250 nm to 750 nm. The protocol: To a stirring solution of cyclic RGD (cyclo(Arg-Gly-Asp-D-Phe-Lys) (cRGD), 1.0 mg, 1.66 μmol, 1.0 eq., Peptides International, KY, US) in anhydrous DMF (200 μL) a solution of BHQ-1 N-hydroxysuccinimide (NHS) ester (1.2 mg, 2.0 μmol, 1.2 eq., Biosearch Technologies, CA, US) in anhydrous DMF (200 μL) and […] (1.2 μL, 8.0 μmol, 4.8 eq.) was added sequentially. The resulting reaction solution was stirred for 4 h at room temperature. Purification by high performance liquid chromatography (HPLC) (C18, 10% to 100% of acetonitrile over 10 min, then 100% of acetonitrile until 18 min, 1.0 mL/min) yielded BHQ-1-cRGD (1.5 mg, 1.4 μmol, 82%) as a black solid. The purity of BHQ-1-cRGD was analyzed by performing analytical HPLC (rt=11.0 min, >97%). The identity of the product ([…], MW: 1090.21 g/mol) was verified by electrospray ionization mass spectrometry (ESI(+): m/z (%) 546.70 (100) [M+2H]^2+, 1090.40 (25) [M+H]^+). The absorbance spectra of BHQ-1 and BHQ-1-cRGD were measured in ethanol using spectrophotometry from 250 nm to 750 nm.

Data set [2] can be described thus: In vivo optoacoustic imaging (RSOM) of BHQ-1 in mouse footpad. Also noted: species or system mice. The protocol:
For in vivo experiments, 6-8 week old female Hsd: Athymic Nude-Foxn1^nu mice were purchased from Envigo (IN, US). All animal experiments were performed in accordance with institutional guidelines and approved by the IACUC of MSK, and followed NIH guidelines for animal welfare.
For imaging, a high-resolution raster-scan optoacoustic mesoscopy (RSOM) prototype scanner was used in an epi-illumination mode. The scanner illuminates the tissue with a fast monochromatic nanosecond laser (1 ns, 2 kHz, 1 mJ pulse energy at 532 nm). The laser light was coupled to the sample using a three arm fiber bundle which is combined with the ultrasound detector into a single scan unit. The optoacoustic signals were measured with a 50 MHz spherically focused detector and a bandwidth of 5-80 MHz. Furthermore, the signals were amplified with a 63 dB low noise amplifier and digitized using a fast 12 bit data acquisition card. The scan was performed in a continuous-discrete manner. The usual scan took 1.30 minutes for a field of view of 8×8 mm^2 and the maximum depth was about 2 mm, limited by the penetration depth of 532 nm photons in tissue.
The raw signals were transformed to the computer on which they were later reconstructed using beam forming. Before reconstruction, the signals were divided into two sub-bands: low frequencies 5-25 MHz and high frequencies 25-80 MHz. These sub-bands were later on separately reconstructed an overlayed using different colors (red=low frequencies, green=high frequencies). For the reconstruction a speed of sound of 1540 m/s has been used and the reconstruction has been performed with voxel sizes of 20×20×5 μm^3. Finally, the Hilbert transform was applied to the reconstructed volume to remove the negative values and the images were further processed using a Wiener and a Median filter to improve the signal to noise ratio. For visualization we took the maximum intensity of the three-dimensional volume.
All mice were anesthetized using 2% isoflurane. For imaging the quencher dye in vivo, 10 nmol BHQ-1 solution were injected subcutaneously into the footpad of 3 mice. The mouse was then placed in a pre-warmed water bath on a mouse bed keeping the head of the animal above water level. The foot of the mouse was stabilized under water with tape to keep it in a static position for the measurement procedure. The feet were measured before and directly after injection using RSOM as described under 2.3. Quantitative analysis was done in ImageJ by placing a ROI over the injection site of each foot as well as over the background blood vessels in the foot pad.

Setting [3] is: 10 nmol subcutaneous into footpad.

`COc1cc(/N=N/c2ccc(C)cc2[N+](=O)[O-])c(C)cc1/N=N/c1ccc(N)cc1` [BHQ-1] displayed an absorption spectrum peak in data set [1] of 515 nm. In addition, in data set [2] (setting [3]), the “optoacoustic signal at the injection site, high frequencies (25-80 MHz)” value amounted to 55.6±5.7 AU and the “optoacoustic signal at the injection site, low frequencies (5-25 MHz)” value was found to be 67.2±3.4 AU. Further, the “optoacoustic signal at the injection site, overlay image of all detected frequencies” value in data set [2] (10 nmol subcutaneous into footpad, directly after injection) came to 121.6±14.2 AU. Also, the “optoacoustic signal at injection site relative to surrounding footpad vessels” value in data set [2] (overlay of all frequencies, 10 nmol s.c.) is reported as around 5 times.
